From patent publication US10322191B2, “Targeted conjugates and particles and formulations thereof” (TARVEDA THERAPEUTICS, INC., priority 2014, dated 2019)
Read-outs that look alike come from different tables or passages of the source.

Key:
[1] = target: T1, SSTR2 (Homo sapiens, UniProt P30874); test: PathHunter eXpress Activated GPCR Internalization agonist assay; type: cell-based; parameters: expressed in transfected cells; conditions: receptor internalization, agonist dose response
Procedure: Two conjugates were assessed in an in vitro assay evaluating SSTR2. The steps outlined below provide the assay volumes and procedure for performing agonist assays using the PathHunter eXpress Activated GPCR Internalization cells and PathHunter Detection Reagents generally according to the manufacturer's recommendations. GraphPad Prism® was used to plot the agonist dose response.

[2] = target: T1, SSTR2; test: Radioligand-receptor binding assay, [125I] labeled somatostatin, membranes from SSTR2 expressing CHO-K1 cells; parameters: host or cells: CHO-K1
Procedure: Two conjugates were assessed in an in vitro assay evaluating binding to the somatostatin receptor 2 (SSTR2). A radioligand-receptor binding assay was conducted at Eurofins Panlabs (Taiwan) to determine the affinity of conjugates described herein to the SSTR2. The assay measures binding of radiolabeled ligand, [^125I] labeled somatostatin, to human SSTR2 using membrane preparations from SSTR2 expressing CHO-K1 cells. Membranes were incubated with radiolabeled somatostatin (0.03 nM) in the presence of conjugate/compound starting at a dose of 10 uM using 6× serial dilutions to obtain a 10-pt curve. After a four-hour incubation, membranes were filtered and washed 3× and counted to determine the remaining [^125I] somatostatin bound to the receptor. IC50 values were determined by a non-linear, least squares regression analysis using MathIQ™ (ID Business Solutions Ltd., UK). The Ki values were calculated using the equation of Cheng and Prusoff (Cheng and Prusoff, Biochem. Pharmacol. 22: 3099-3108, 1973) using the observed IC50 of the tested conjugate/compound, the concentration of radioligand employed in the assay, and the historical values for the KD of the ligand obtained at Eurofins.

[3] = test system: NCI-H524 (ATCC) human lung cancer cells; type: cell-based
How it was run: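 NCI-H524 cells at 5,000/well were exposed to conjugate for 2 h from 20 μM top dose (ten-point, three-fold dilutions), washed, then grown a further 70 h. For competition, cells were pretreated 30 min with 100 μM octreotide. CellTiter Glo readout; % inhibition vs vehicle; four-parameter IC50.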

[4] = Solubility in aqueous media containing surfactants such as Tween 80; type: physicochemical; conditions: aqueous Tween 80
[5] = test system: NCI-H69 SCLC (small cell lung cancer) tumors; test: H69 tumor DM-1 levels by LC/MS-MS; type: in vivo, mice; conditions: 24 hour time point; dosed at 1 mg/kg (conjugates, nanoparticles) or 0.4 mg/kg for DM-1
Procedure: To examine the ability of conjugates of the present invention to accumulate in tumors, a murine cancer model was used. All mice were treated in accordance with the OLAW Public Health Service Policy on Human Care and Use of Laboratory Animals and the ILAR Guide for the Care and Use of Laboratory Animals. All in vivo studies were conducted following the protocols approved by the Blend Therapeutics Institutional Animal Care and Use Committee. Animals were inoculated with 2.5×10{circumflex over (0)}6 NCI-H69 SCLC (small cell lung cancer) cells in 1:1 RPMI 1640 (Invitrogen, Carlsbad, Calif.)/Matrigel® (BD Biosciences, San Jose, Calif.) via subcutaneous injection to the right flank. Tumors were allowed to reach an approximate volume of ˜500 mm3. Animals were then randomized into treatment groups of 3 animals per time point and were dosed at 1 mg/kg (10% propylene glycol in water for injection for free conjugates, or 10% sucrose for nanoparticles), or 0.4 mg/kg for DM-1 (10% propylene glycol in water for injection). The 24 hour time point was used as a benchmark across conjugates.
Tumor DM-1 levels were determined by liquid chromatography mass spectrometry (LC/MS-MS). Four volumes of 5 mM 6-maleimidohexanoic acid to 1 part tumor v/w was added and homogenized for about 10-15 seconds with a handheld homogenizer. 10 μL of 500 mM Tris(2-carboxyethyl)phosphine was added to 100 uL of tumor homogenate, mixed well and incubated at room temperature for about 5-15 min. 200-300 uL of acetonitrile was used to precipitate proteins in tumor homogenate, samples were centrifuged for 5 min, and supernatant was injected onto LC/MS-MS system for DM-1 analysis.

[6] = test system: phospho-histone H3; test: Phospho-histone H3 response in NCI-H69 tumors; type: in vivo; conditions: FIG. 8
[7] = Pharmacokinetics in rat plasma of Conjugate 10 and Conjugate 10 NP6; conditions: in vivo
Procedure: Pharmacokinetics studies in rat plasma were also carried out. AUC values were show in Table 16.

[8] = test system: human NCI-H69 SCLC; test: Tumor growth of human NCI-H69 SCLC in mice; type: in vivo, NCR nude mice; conditions: for tumor volume: Conjugate 10 and Conjugate 10 NP6 2 mg/kg, DM1 0.8 mg/kg, once weekly for two doses, up to 100 days, FIG. 4
Procedure: Applicants assessed the activity of a conjugate and a nanoparticle formulation of the conjugate in vivo. In these experiments, the ability of compounds to affect the growth of human NCI-H69 SCLC was tested. For the in vivo study, 8 week old female NCR nude mice were inoculated subcutaneously into the right flank with 2 million cells in 1:1 RPMI 1640 (Invitrogen, Carlsbad, Calif.)/Matrigel® (BD Biosciences, San Jose, Calif.). Tumor measurements were taken twice weekly, using vernier calipers. Tumor volume was calculated using the formula: V=0.5×width×width×length.
When tumors approached a volume of 200 mm^3, mice were randomized into four groups of ten animals. Mice were treated with vehicle control (10% propylene glycol in water for injection), Conjugate 10 at 2 mg/kg (10% propylene glycol in water for injection), Conjugate 10 NP6 nanoparticle at 2 mg/kg (10% Sucrose), or DM1 at 0.8 mg/kg (10% propylene glycol in water for injection). Mice were dosed once weekly for two doses. Final tumor volumes were analyzed using with a one-way analysis of variance and Tukey multiple comparison test.
Tumor volume study was repeated with three doses for vehicle, Conjugate 10 (0.7 mg/kg each), and Conjugate 10 NP6 (0.7 mg/kg each). Tumor volumes were tracked for 30 days.

[9] = Table 6, treated 2 hours, further incubated 70 hours, read-out: H524 IC50
[10] = read-out: H524 IC50 + 100 μM octreotide, Table 6, with octreotide competition
[11] = Table 15, treated 2 hours, further incubated 70 hours, read-out: H524 IC50
[12] = read-out: H524 IC50+ 100 uM octreotide, Table 15, 100 μM octreotide for 30 min, then conjugate 2 hours, 70 hours incubation

T1 sequence (P30874 whole entry): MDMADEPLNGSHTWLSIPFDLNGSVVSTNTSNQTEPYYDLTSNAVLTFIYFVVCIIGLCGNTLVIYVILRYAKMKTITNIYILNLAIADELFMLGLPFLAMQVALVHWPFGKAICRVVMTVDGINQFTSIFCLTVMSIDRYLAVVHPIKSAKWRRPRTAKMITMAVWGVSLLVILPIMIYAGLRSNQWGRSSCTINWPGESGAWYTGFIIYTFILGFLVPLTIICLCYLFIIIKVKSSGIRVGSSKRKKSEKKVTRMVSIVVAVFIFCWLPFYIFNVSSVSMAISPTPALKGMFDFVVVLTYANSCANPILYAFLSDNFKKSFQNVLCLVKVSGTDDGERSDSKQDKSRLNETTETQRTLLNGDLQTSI

SMILES | EC50 [1] [nM] | Ki ([2]; read-out: SSTR2 Ki) [nM] | IC50 [3, 9] [nM] | IC50 [3, 10] [nM] | solubility in aqueous media containing surfactants such as Tween 80 [4] | H69 tumor DM-1 levels [5] [nM] | Ki [2] [nM] | IC50 [3, 11] [nM] | IC50 [3, 12] [nM] | tumor volume [8] | further results
COc1cccc2c1C(=O)c1c(O)c3c(c(O)c1C2=O)C[C@@](O)(C(=O)COC(=O)CCCC(=O)N[C@H](Cc1ccccc1)C(=O)N[C@H]1CSSC[C@@H](C(=O)N[C@H](CO)[C@@H](C)O)NC(=O)[C@H]([C@@H](C)O)NC(=O)[C@H](CCCCN)NC(=O)[C@@H](Cc2c[nH]c4ccccc24)NC(=O)[C@H](Cc2ccccc2)NC1=O)C[C@@H]3O[C@H]1C[C@H](N)[C@H](O)[C@H](C)O1 [Conjugate 2] | 35 | 0.24 | 2850 | 2940 | high solubility |  |  |  |  |  | 
COc1cc2cc(c1Cl)N(C)C(=O)C[C@H](OC(=O)[C@H](C)N(C)C(=O)CCSSCCC(=O)NCCCC[C@H]1C(=O)N[C@@H](Cc3ccc(O)cc3)C(=O)N[C@H](Cc3c[nH]c4ccccc34)C(=O)N[C@@H](CCCCN)C(=O)N[C@@H]([C@@H](C)O)C(=O)N[C@@H](Cc3ccccc3)C(=O)N1C)[C@]1(C)O[C@H]1[C@H](C)[C@@H]1C[C@@](O)(NC(=O)O1)[C@H](OC)/C=C/C=C(\C)C2 [Conjugate 10] |  |  |  |  |  | 72.1 | 0.1 | 156 | 625 | initially provided tumor regression, but tumors regrew | phospho-histone H3 response in NCI-H69 tumors after treatment [6]: Increase; phospho-histone H3 response at around 50 hour ([6]; around 50 hour): started to decrease; AUC(0-inf) [7]: 0.377 µM·h; clearance [7]: 13 mL/min/kg; animals removed from the study due to large tumor size (tumor size less than 2000 mm^3 curve) ([8]; out to 100 days, 2 mg/kg, two doses, FIG. 5): three
COc1cc2cc(c1Cl)N(C)C(=O)C[C@H](OC(=O)[C@H](C)N(C)C(=O)CCSSCCCN[C@H](Cc1ccccc1)C(=O)N[C@H]1CSSC[C@@H](C(=O)N[C@H](CO)[C@@H](C)O)NC(=O)[C@H]([C@@H](C)O)NC(=O)[C@H](CCCCN)NC(=O)[C@@H](Cc3c[nH]c4ccccc34)NC(=O)[C@H](Cc3ccccc3)NC1=O)[C@]1(C)O[C@H]1[C@H](C)[C@@H]1C[C@@](O)(NC(=O)O1)[C@H](OC)/C=C/C=C(\C)C2 [Conjugate 76] | 3 |  |  |  |  | 62.2 | 0.12 | 120 | 768 |  | 
COc1cc2cc(c1Cl)N(C)C(=O)C[C@H](OC(=O)[C@H](C)N(C)C(=O)CCS)[C@]1(C)O[C@H]1[C@H](C)[C@@H]1C[C@@](O)(NC(=O)O1)[C@H](OC)/C=C/C=C(\C)C2 [DM1, reference compound] |  |  |  |  |  |  |  |  |  | tumor volume increased rapidly | 
CO[C@H]1C(=O)[C@]2(C)[C@@H](OC)C[C@H]3OC[C@@]3(OC(C)=O)[C@H]2[C@H](OC(=O)c2ccccc2)[C@]2(O)C[C@H](OC(=O)[C@H](OC(=O)OCCSSCCC(=O)N[C@H](Cc3ccccc3)C(=O)N[C@H]3CSSC[C@@H](C(=O)N[C@H](CO)[C@@H](C)O)NC(=O)[C@H]([C@@H](C)O)NC(=O)[C@H](CCCCN)NC(=O)[C@@H](Cc4c[nH]c5ccccc45)NC(=O)[C@H](Cc4ccccc4)NC3=O)[C@@H](NC(=O)OC(C)(C)C)c3ccccc3)C(C)=C1C2(C)C [Conjugate 1] | 4.4 | 0.8 | 110 | 146 | high solubility |  |  |  |  |  | 
